The test system of one test is MDAMB231. Description: MDAMB231 orthotopic xenograft tumor growth. In kind it is in vivo, female SCID Beige mice. Conditions: MDAMB231 (predicted resistant) in mammary fat pad; 10 mg/kg ip q2d; treatment stopped Day 20. How it is done:
(§1) MDAMB231 cells (ATCC, Manassas, VA, cat #HTB-26) were implanted orthotopically (2×10^6 per mouse) as a mixture in Matrigel (50%) into the mammary fat pad of female SCID Beige mice (10 mice per treatment arm) and grown to a volume of about 75 mm^3 prior to compound administration. CT-110 was dosed alone at 10 mg/kg ip, once every two days (ip, q2d) in 1% (weight/volume) sodium carboxymethyl cellulose/0.5% (volume/volume) Tween-80. A control group received vehicle alone (1% (weight/volume) sodium carboxymethyl cellulose/0.5% (volume/volume) Tween-80ip q2d). All drug treatment was stopped on Day 20. The major endpoint is to assess whether the tumor growth can be delayed or mice can be cured. Tumor sizes are measured twice weekly in two dimensions using a caliper, and the volume is expressed in mm^3 using the formula: V=0.5 a×b^2 where a and b are the long and short diameters of the tumor, respectively. The tumor sizes are then used for the calculations of both T-C and T/C values. T-C is calculated with T as the median time (in days) required for the treatment group tumors to reach a predetermined size (e.g., 1,000 mm^3), and C is the median time (in days) for the control group tumors to reach the same size. The T/C value (in percent) is an indication of antitumor effectiveness, T and C are the mean volume of the treated and control groups, respectively, on a given day.

The subject of the next test is COLO205. Description: NCI-60 single-dose in vitro growth inhibition assay. In kind it is cell-based, human. The following applies: single-dose 10 μM. How it is done: (§2) As in FIG. 1, Compound CT-110 was used in single-dose (10 μM) in vitro growth inhibition assays of the NCI-60 cell lines. The NCI-60 panel contains 60 diverse human cancer cell lines screened with more than 100,000 chemical compounds for anticancer activity since 1990 by the Developmental Therapeutics Program (DTP). See Huang, et al., 2005, Pharmacogenomics J. 5:381-99; Staunton, et al., 2001, PNAS USA 98(19):10787-92; Covell, et al., 2007, Mol. Cancer Ther. 6:2261-70; Potti, et al., 2006. Nat. Med. 12(11):1294-300. Standardization of NCI-60 inhibition data into Z-scores. NCI-60 cell line percent growth data obtained after culture in the presence of CT-110 were converted to percent growth inhibition by the formula 100−% Growth. A Z-score for each cell line data point was calculated using the formula (X-value minus 60-element array average)/(Array standard deviation). Z-scores are associated with a normal distribution and are used (1) to indicate where a score lies relative to the entire data set, above or below the mean, and (2) to compare scores derived from different normal distributions. Narrowing the 25K+ CellMiner genes to a CT-110 inhibition signature set of 6 genes. Pattern comparison searching yielded a list of 1,080 genes having significant Pearson correlations (r>0.334 or r<−0.334) to the NCI-60 Z-score profile of CT-110. Cross-referencing this profile-matching list with 1,106 cancer-relevant genes comprising a 755-gene PanCancer and Custom Codeset, supplemented with 545 “Cancer Driver” genes (Integrative OncoGenomics, BROAD Institute TARGET Database v3, Targeted Therapies for Cancer), reduced the number of genes to fifty (50). NCI-60-based Z-score profiles for these 50 genes were obtained using the CellMiner “Cell Line Signature Analysis” query. […] Z-scores, reflective of gene expression level and directionality, were used to identify forty-five (45) genes out of the […] (Table 3) that had expression either up or down in at least 4 out of the 5 CT-110-sensitive or resistant cell lines (assessed independently). […] These six genes (CDH1, CREB3L4, PIK3C2B, RNF43, SREBF1 and ZMYM2) are the end result of the rational approach to establish a focused set of genes, with expression profiles reflecting the growth inhibition profile of CT-110 in sensitive and resistant cancer cell lines.

Another test relates to SK-MEL-2. The description is as above. The following applies: single-dose 10 μM. Format: cell-based, human. How it is done:
as §2

The test system of another test is HT29. The test is described as above. In kind it is cell-based, human. The following applies: single-dose 10 μM. On the procedure: as §2
Another test concerns OVCAR-8. The description is as above. The following applies: single-dose 10 μM. Format: cell-based, human. On the procedure: as §2
The next test has as its system OVCAR-3. The description is as above. Format: cell-based, human. The following applies: single-dose 10 μM. On the procedure:
as §2

Another test concerns SK-MEL-28. The test is described as above. Format: cell-based, human. The following applies: single-dose 10 μM. How it is done:
as §2

A further test relates to MCF7. Described as above. In kind it is cell-based, human. Conditions: single-dose 10 μM. How it is done: as §2
In the next test the test system is SK-MEL-5. The description is as above. Format: cell-based, human. The following applies: single-dose 10 μM. On the procedure: as §2
In another test the test system is RPMI-8226. Described as above. In kind it is cell-based, human. The following applies: single-dose 10 μM. How it is done: as §2
The next test deals with UACC-257. The description is as above. In kind it is cell-based, human. The following applies: single-dose 10 μM. On the procedure: as §2
For another test, the system named is BT474. Description: BT474 orthotopic xenograft tumor growth. In kind it is in vivo, female SCID Beige mice. Conditions: BT474 (predicted sensitive) in mammary fat pad; 10 mg/kg ip q2d; treatment stopped Day 30. How it is done:
as §1, with “BT474” for “MDAMB231”, “#HTB-20)” for “#HTB-26)”, “125” for “75”, “30.” for “20.”

Consider 1 compound from patent publication US20260125762A1, “METHODS OF IDENTIFYING AND TREATING TUMORS WITH SIGMA1 INHIBITORS” (Drexel University, priority 2016, published 2026).

Regarding `N=C(NCCCOc1ccc(F)cc1)Nc1ccc(Cl)cc1` [CT-110, 1-(3-(4-fluorophenoxy)propyl)-3-(4-chlorophenyl)guanidine], the figures for the “tumor growth T/C” value with MDAMB231 and in the test on BT474 were below 10% and 70%, respectively. The “sensitivity to Sigma1 inhibition by CT-110 (growth inhibition rank in NCI-60)” value with COLO205 was “most sensitive”; in the test on SK-MEL-2 it was “most resistant”; in the test with HT29, “most sensitive”; in the test on OVCAR-8 it was “most resistant”; in the test with OVCAR-3, “most resistant”; in the test on SK-MEL-28 it was “most resistant”. Besides, the “sensitivity to Sigma1 inhibition by CT-110 (growth inhibition rank in NCI-60)” value was “most sensitive” in the test on MCF7, “most sensitive” with SK-MEL-5, “most resistant” in the test with RPMI-8226 and “most sensitive” in the test on UACC-257.
